pKi: −log10 of the molar value. “Also recorded” adds a separate entry of the source. Read-outs that look alike come from different tables or passages of the source.
What was measured:
[1] = test system: male Swiss Webster mice; assay: Porsolt forced swim test (FST); type: in vivo, mouse; details: for antidepressant-like activity / effect on immobility time in FST: male Swiss Webster mice, IP, immobility during last 4 min of 6 min swim
Method: (§1) Locomotor Activity and the FST. To evaluate the isolated compounds for antidepressant-like activity, male Swiss Webster mice (Harlan, Indianapolis, Ind.) (25-30 g weight) were used. Animals were housed in groups of five with a 12 h light/12 h dark cycle. Food and water were provided at libitum. All procedures involving animals were performed as approved by the Institutional Animal Care and Use Committee of the University of Mississippi. Animals were randomly divided into groups (n=6-10/group). Each group was injected IP with either the compound (1-20 mg/kg), desipramine (20 mg/kg), or vehicle (saline, 10% ethanol or 10% ethanol/1% DMSO). Following injection, locomotor activity was monitored using an automated activity monitoring system (San Diego Instruments, San Diego, Calif.). Each mouse was placed in a Plexiglas enclosure and locomotor activity was recorded as the number of photobeam interruptions for 30 min after drug injection. The activity for the last ten min was quantified and analyzed. Immediately at the end of the locomotor session, individual mice were subjected to the FST. The mice were individually placed in a clear plastic cylinder (23 cm high, 10 cm internal diameter) filled with deionized water (8 cm high) at 25° C. The mice were recorded with a video camera (positioned at about 30 cm above the cylinder) for a total of 6 min. The total period of immobility during the last 4 min was timed by three independent observers. The mean immobility time was then calculated. A mouse was judged to be immobile when it remained afloat, making only minimal movements to keep its head above water.
(§2) For the FST, immobility times of the three independent rates were averaged for each mouse and data were analyzed using one way analysis of variance (ANOVA) followed by Bonferroni Multiple comparison posthoc tests to determine statistical differences from the corresponding vehicle control. Chick distress vocalization data were analyzed by two-way repeated measures ANOVA, one-way ANOVA and simple effects analyses with post-hoc comparisons conducted using Fisher's LSD test. p-Values less than 0.05 were considered statistically significant.
(§3) Porsolt R D, et al. Behavioral Despair In Mice: A Primary Screening Test for Antidepressants, 229 Arch. Int. Pharmacodyn. 327-36 (1977). […] In order to control for false positives, as has been previously observed with psychostimulants, Cryan, J., et al. Assessing Substrates Underlying The Behavioral Effects Of Antidepressants Using The Modified Rat Forced Swimming Test. 29 Neurosci Biobehav Rev. 547-69 (2005) locomotor activity of the animals was monitored using an automated photobeam activity monitoring system. Lucki. I. The Forced Swimming Test As A Model For Core And Component Behavioral Effects Of Antidepressant Drugs. 8 Behav. Pharmacol. 522-32 (1997).

[2] = test system: male Swiss Webster mice; assay: Locomotor activity test, Swiss Webster mice; type: in vivo, mouse; details: IP, photobeam interruptions, versus vehicle
Method: as §1
(§4) Effect of select compounds on locomotor activity. Since reductions in immobility time is the primary criterion to assess antidepressant like activity in both the FST and TST, it is crucial to confirm that the effects observed in both tests are not attributed to specific stimulant action of the tested compounds, which would be reflected as enhancement of the locomotor activity. Accordingly, the effect of tested compounds on locomotor activity was evaluated using an automated activity monitoring system.

[3] = molecular target: T1, 5HT2A receptor (Homo sapiens, UniProt P28223); details: human serotonin receptor, reported; cited from earlier work
[4] = molecular target: T2, 5HT2C receptor (Homo sapiens, UniProt P28335); details: cited from earlier work; for pKi: human serotonin receptor, reported
T2 sequence (P28335 33-458): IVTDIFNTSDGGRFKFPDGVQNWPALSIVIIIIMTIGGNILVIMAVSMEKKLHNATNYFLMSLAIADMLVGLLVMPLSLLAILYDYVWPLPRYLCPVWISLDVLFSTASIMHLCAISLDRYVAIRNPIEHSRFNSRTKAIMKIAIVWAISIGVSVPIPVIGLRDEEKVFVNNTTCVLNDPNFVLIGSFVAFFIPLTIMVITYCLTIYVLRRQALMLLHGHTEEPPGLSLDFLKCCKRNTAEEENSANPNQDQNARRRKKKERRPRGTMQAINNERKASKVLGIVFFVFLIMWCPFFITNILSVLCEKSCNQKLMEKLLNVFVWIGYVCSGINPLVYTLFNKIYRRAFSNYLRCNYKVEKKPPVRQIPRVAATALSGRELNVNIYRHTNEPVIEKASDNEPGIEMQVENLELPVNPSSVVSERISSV

[5] = test system: serotonin receptors; assay: Affinity to serotonin receptors (receptor binding panel); set-up: species or system human or rodent
Method: (§5) Evaluation of binding affinity of isolated compounds to serotonin receptors. In vitro testing of isolated compounds was completed using a small panel of receptor binding assays and then validated in a comprehensive panel by the NIMH Psychoactive Drug Screening Program. Pharmacological and functional screening of isolated molecules was performed on cloned human or rodent CNS receptors, channels, and transporters. Hu, J-F., et al. New Antiinfective and Human 5-HT2 Receptor Binding Natural and Semisynthetic Compounds from the Jamaican Sponge Smenospongia aurea. 65 Jour. of Nat. Prod. 476-80 (2002).
as §3

[6] = test system: Male DBA2/J mice; assay: Mouse tail suspension test (TST); type: in vivo; details: i.p., versus vehicle
Source text: Based on the data collected from the FST, the antidepressant action of aaptamine. 5,6-dibromo-N,N-dimethyltryptamine, and 3-bromotyramine was examined in the mouse tail suspension test (TST), another model highly predictive of antidepressant action. Similar to the FST, this test depends on the depressive behavior elicited by the animals when placed in an inescapable situation, in this case suspending the animal by its tail. Male DBA2/J mice were used for this test.
In fact, higher doses seem to increase immobility time (FIG. 9C). […] However, such effect was only evident at the 40 mg/kg dose (compared to 10 and 20 mg/kg dose in the FST) (FIG. 9D).

[7] = molecular target: T3, 5-HT2C (UniProt P28335); assay: In vitro receptor binding assay, 5-HT2C; set-up: species or system human or rodent; details: read-out: Ki 5-HT2C; preliminary data
T3 sequence (P28335 1-458): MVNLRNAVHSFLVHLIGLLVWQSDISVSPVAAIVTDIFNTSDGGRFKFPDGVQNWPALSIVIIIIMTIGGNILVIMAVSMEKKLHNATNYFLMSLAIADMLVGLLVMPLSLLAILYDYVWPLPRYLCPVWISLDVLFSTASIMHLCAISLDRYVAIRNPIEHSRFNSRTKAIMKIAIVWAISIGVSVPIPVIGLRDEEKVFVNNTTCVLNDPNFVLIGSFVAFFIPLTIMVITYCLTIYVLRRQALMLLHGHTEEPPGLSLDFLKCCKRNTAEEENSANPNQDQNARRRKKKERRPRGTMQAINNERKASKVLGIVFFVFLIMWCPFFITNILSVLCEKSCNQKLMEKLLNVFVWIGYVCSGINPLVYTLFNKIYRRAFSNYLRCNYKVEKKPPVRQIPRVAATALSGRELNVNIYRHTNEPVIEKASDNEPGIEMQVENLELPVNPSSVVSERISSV
Method: as §5

[8] = molecular target: 5-HT2B receptors (UniProt P41595); assay: In vitro receptor binding assay, 5-HT2B; set-up: species or system human or rodent; details: read-out: Ki 5-HT2B; preliminary data
Method: as §5

[9] = test system: white-leghorn cockerels; assay: Chick anxiety-depression continuum model (SCADM); type: in vivo; details: 30 mg/kg dose
Method: 5,6-Dibromo-N,N-dimethyltryptamine (1) was evaluated in the FST and chicken anxiety-depression model. […] In the chick anxiety-depression continuum model, socially raised chicks are separated from conspecifics during a two hour test session. […] Previous studies have shown the first 5 min block to model the anxiety phase whereby a diverse set of anxiolytic compounds reduce distress vocalizations and that the last 90 min of the test session models the depressive phase of the model whereby antidepressants increase distress vocalizations (i.e., block the onset of behavioral despair). Sufka, K. J. et al.; 17 C. M. Behav.
Sulfka Chick Anxiety-Depression Model (SCADM) Test. Group housed white-leghorn cockerels (Cal-Maine W36) were tested at ages 5-6 days post-hatch. […] Vocalizations were recorded in 5-min blocks over a 120 min test period. […]
as §2

[10] = molecular target: T1, 5HT2A receptor; assay: In vitro receptor binding assay, 5-HT2A; set-up: species or system human or rodent; details: read-out: Ki 5-HT2A; preliminary data
Method: as §5

[11] = molecular target: 5-HT6 (UniProt P50406); assay: In vitro receptor binding assay, 5-HT6; set-up: species or system human or rodent; details: read-out: Ki 5-HT6; preliminary data
Method: as §5

[12] = test system: DBA2/J mice; assay: Locomotor activity test, DBA2/J mice; type: in vivo, mouse; details: versus vehicle
Method: as §4
However, Tukey's post-hoc tests confirmed that there were no statistical differences between the vehicle controls, or compounds from their respective vehicle controls (FIG. 10A). […] In DBA2/J mice, the pattern of responding in the locomotor studies was similar to that observed in the Swiss Webster mice (FIG. 10B). […] It is thus evident that the drug/dose combinations that produced antidepressant-like effects in both the FST and TST were not associated with confounding stimulant effects effect of select compounds in chick anxiety/depression model: […]

T1 sequence (P28223 whole entry): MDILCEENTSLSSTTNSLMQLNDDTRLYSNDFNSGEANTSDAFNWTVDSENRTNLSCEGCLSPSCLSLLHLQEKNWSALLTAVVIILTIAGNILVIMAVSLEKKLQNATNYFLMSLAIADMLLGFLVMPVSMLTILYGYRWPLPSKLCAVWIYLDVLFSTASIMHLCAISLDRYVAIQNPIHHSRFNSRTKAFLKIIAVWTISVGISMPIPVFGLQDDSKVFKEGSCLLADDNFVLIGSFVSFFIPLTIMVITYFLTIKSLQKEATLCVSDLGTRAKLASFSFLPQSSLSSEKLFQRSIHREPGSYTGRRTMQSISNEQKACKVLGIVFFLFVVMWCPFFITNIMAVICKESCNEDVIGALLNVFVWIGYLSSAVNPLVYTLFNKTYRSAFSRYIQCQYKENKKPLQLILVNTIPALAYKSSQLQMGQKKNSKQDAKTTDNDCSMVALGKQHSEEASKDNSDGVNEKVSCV

**Q.** With CN1C(=N)N(C)/C(=C/c2c[nH]c3ccccc23)C1=O [Aplysinopsin, aplysinopsin] as the compound, how does the “antidepressant-like activity / effect on immobility time in FST” value (“antidepressant-like activity / effect” below) ([1]; versus vehicle) read?
**A.** The value was “did not show any significant antidepressant-like activity”.

**Q.** Which “effect on locomotor activity” value [2] does the source give for CN(C)CCc1c[nH]c2ccc(Br)cc12 [5-bromo-N,N-dimethyltryptamine] here?
**A.** The value was “significant reduction of locomotor activity”.

**Q.** And the “effect on locomotor activity” value ([2]; listed as 2)?
**A.** Its value is “significant sedative effect”.

**Q.** What about the “antidepressant-like activity / effect” value ([1]; versus vehicle) of the same compound?
**A.** Its value is “did not exhibit antidepressant-like activity”.

**Q.** With CN(C)CCCC1(c2ccc(F)cc2)OCc2cc(C#N)ccc21 (stereo not drawn) [citalopram, reference compound] as the compound, how does the “reduction in immobility time in FST” value ([1]; 5 mg/kg dose, versus saline vehicle) read?
**A.** Its value is 40%.

**Q.** With N-3′-ethylaplysinopsin as the compound, how does the pKi [3] read?
**A.** The pKi was 5.77.

**Q.** What about the pKi [4] of the same compound?
**A.** The pKi was 5.46.

**Q.** With CN1C(=N)NC(=Cc2c[nH]c3cc(Br)ccc23)C1=O [6-bromo-2′-de-N-methylaplysinopsin] as the compound, how does the pKi [3] read?
**A.** Its pKi is under 4.00.

**Q.** And the “selectivity to 5HT2C receptors” value ([4]; 5HT2C over 5HT2A)?
**A.** The value was 40 fold.

**Q.** What about the pKi [4] of the same compound?
**A.** Its pKi is 5.64.

**Q.** With CN1C(=N)N(C)/C(=C/c2c[nH]c3cc(Br)ccc23)C1=O [6-bromoaplysinopsin] as the compound, how does the pKi [3] read?
**A.** Its pKi is 5.70.

**Q.** And the pKi [4]?
**A.** The pKi was 6.48.

**Q.** Which “affinities to serotonin receptors” value [5] does the source give for COc1cc2ccnc3c2c(c1O)N(C)C=C3 [isoaaptamine] here?
**A.** The value was “moderate affinities”.

**Q.** What about the “antidepressant-like activity / effect” value ([1]; versus vehicle) of the same compound?
**A.** Its value is “significantly increased immobility time in a dose-dependent manner”.

**Q.** Which results are given for CNCCCN1c2ccccc2CCc2ccccc21 [desipramine, reference compound]?
**A.** effect on locomotor activity [2]: no significant difference in locomotor activity; antidepressant-like action / immobility in tail suspension test [6]: significant reduction in immobility; reduction in immobility time in FST ([1]; 20 mg/kg dose, versus vehicle): 27%

**Q.** With CN(C)CCc1c[nH]c2cc(Br)c(Br)cc12 [5,6-dibromo-N,N-dimethyltryptamine] as the compound, how does the pKi [7] read?
**A.** The pKi was 6.73.

**Q.** And the pKi [8]?
**A.** Its pKi is 7.96.

**Q.** And the “effect on locomotor activity” value [2]?
**A.** Its value is “no statistically significant difference; also recorded: nonsignificant trend toward decreasing locomotor activity”.

**Q.** And the “separation distress vocalizations, depression phase” value ([9]; 30-120 min of test session)?
**A.** The value was “elevating separation distress vocalizations in the final 30 min of the depression phase”.

**Q.** What about the “separation distress vocalizations, anxiety phase” value ([9]; first 5 min of test session) of the same compound?
**A.** The value was “attenuating separation distress vocalizations in the anxiety phase”.

**Q.** What about the pKi [10] of the same compound?
**A.** The pKi was 6.61.

**Q.** What about the “antidepressant-like action / immobility in tail suspension test” value [6] of the same compound?
**A.** Its value is “strong antidepressant-like action at the 5 mg/kg dose only”.

**Q.** What about the “affinities to serotonin receptors” value [5] of the same compound?
**A.** Its value is “moderate affinities”.

**Q.** What about the “antidepressant-like activity / effect” value ([1]; versus vehicle) of the same compound?
**A.** Its value is “significant antidepressant-like action at only the 20 mg/kg dose”.

**Q.** And the “antidepressant-like activity / effect” value ([1]; versus vehicle, listed as 5,6-Dibromo-N,N-dimethyltryptamine)?
**A.** The value was “significant antidepressant-like activity; also recorded: significantly reduced the immobility time only at the 20 mg/kg dose”.

**Q.** What about the pKi [11] of the same compound?
**A.** Its pKi is 7.32.

**Q.** Which “reduction in immobility time in FST” value ([1]; 20 mg/kg dose, versus vehicle) does the source give for COc1cc2ccnc3c2c(c1OC)NC=C3 [aaptamine] here?
**A.** The value was 36%.

**Q.** Which results are given for Oc1cc2ccnc3c2c(c1O)NC=C3 [8,9-demethylaaptamine]?
**A.** affinities to serotonin receptors [5]: moderate affinities; antidepressant-like activity / effect on immobility time in FST ([1]; versus vehicle): Neither

**Q.** What does the source list for NCCc1ccc(O)c(Br)c1 [216/218, 2-(3′-bromo-4′hydroxyphenol)-ethanamine]?
**A.** effect on locomotor activity [2]: did not alter the locomotor activity; effect on locomotor activity [12]: did not alter the locomotor activity; antidepressant-like action / immobility in tail suspension test [6]: significant antidepressant action; affinities to serotonin receptors [5]: moderate affinities; antidepressant-like activity / effect on immobility time in FST ([1]; versus vehicle): dose dependent reduction in immobility
